A word on the Ki: it is a dissociation constant, usually derived from enzyme kinetics or from competition with a known ligand. Higher therefore signals weaker binding.

Read-outs that look alike come from different tables or passages of the source.

Series [1] concerns HREC stimulated with VEGF-A. Briefly: Crystal violet proliferation assay in HREC with or without VEGF-A. The settings on record: 24 h; for effect of coincubation with PTZ on the compound's anti-VEGF-A activity on HREC proliferation: 5 μM compound + 2 μM PTZ (σ1 agonist); for effect of coincubation with PTZ on the compound's anti-VEGF-A activity on HREC proliferation / effect on VEGF-A-mediated HREC proliferation / effect of coincubation with AC927 on the compound's anti-VEGF-A activity on HREC proliferation: 80 ng/mL VEGF-A; for effect on VEGF-A-mediated HREC proliferation / effect on HREC proliferation under basal conditions: 5 μM; for effect on HREC proliferation under basal conditions: no VEGF-A; for effect of coincubation with AC927 on the compound's anti-VEGF-A activity on HREC proliferation: 5 μM compound + 2 μM AC927 (σ2 antagonist). The format is cell-based, human. The procedure: As expected, VEGF-A exerted a proangiogenic effect by increasing cell proliferation by about 45% (at 24 h) with respect to the untreated control (Figure 2).
Control cells received an equal volume of vehicle (DMSO). At the end of the treatment, each well was washed with phosphate-buffered saline (PBS). Following this, the cells were fixed (in 4% paraformaldehyde) and stained with crystal violet solution (0.5% in 20% methanol for HREC or 1% aqueous solution for 92-1 cells). Subsequently, the plate was washed with water and left to dry. Crystal violet staining was evaluated by measuring the absorbance at 570 nm or 590 nm, after crystal violet extraction with 10% acetic acid (at room temperature for 10 min), with a microplate reader with the plate reader (Synergy 2-BioTek). For quantification, each assay was carried out in triplicate.

Series [2] in a line: Enzymatic stability (kinetics of enzymatic hydrolysis) in human plasma. As to conditions: human plasma (80%), 37 °C; for half-life at 3.8 µM: pH 7.4, read-out: t1/2, enzymatic stability (converted). Type of series: in vitro ADME. How it is done: Enzymatic stability studies in rat and human plasma were performed for both the racemate and its enantiomers (Table 1). […] Considering the high stability of (±)-1 and its enantiomers in simulated physiological fluids and human plasma, these compounds could reach the target site without undergoing esterase metabolism.
Human plasma was purchased from 3H Biomedical (Uppsala, Sweden, Europe). Plasma aliquots (4 mL) were diluted with 0.02 M PBS (pH 7.4) to obtain a final volume of 5 mL containing 80% plasma. Studies were performed at 37 ± 0.5 °C using a shaking bath. Each experiment was started by adding a 10^–4 M drug stock solution (200 μL) to the preheated plasma. Hundred microliters of the thermostated medium was taken at various times, treated with cold methanol (500 μL) to precipitate plasma proteins, and centrifugated (5 min at 5000g). The supernatant was analyzed by HPLC to quantify the amount of the residual intact compound.

In series [3] the test system is HREC. The settings on record: cited from earlier work.
Series [4] concerns HREC. Briefly: MTT viability test on HREC. The format is cell-based. The settings on record: Homo sapiens. The procedure:
To dissect enantiomer contributions to antiangiogenic effects by (±)-1, compounds (+)-1 and (−)-1 were evaluated on HREC, an endothelial cell model of angiogenesis.[40] First, HREC viability was assessed by the 3-[4,5–dimethylthiazol-2-yl]-2,5-diphenyltetrazolium bromide (MTT) assay to verify the tolerability of the enantiomers, and different concentrations (1.0, 2.5, 5.0, 10.0, and 20.0 μM) of the compounds were tested for 24, 48, and 72 h. The IC50 values of (+)-1 and (−)-1 were calculated and compared to (±)-1 and its precursors (Table 3).
For cell viability assays, the 3-[4,5–dimethylthiazol-2-yl]-2,5-diphenyltetrazolium bromide (MTT assay, Chemicon, Temecula, CA) was used. The cells were seeded in 96-well plates at a density of 1.5 × 10^4 cells/well and were incubated overnight at 37 °C before the experiment. Afterward, the cells were treated for 24, 48, and 72 h in the presence of different concentrations (1.0, 2.5, 5.0, 10.0, 20.0 μM) of (±)-1, (+)-1, or (−)-1. After the treatments, the cells were incubated with MTT (5 mg/mL) for 3 h, and then 100 μL of dimethyl sulfoxide was added, and the absorbance was read in a plate reader (Synergy 2-BioTek) with a wavelength of 570 nm.

Another series deals with T1, σ1 receptor (Cavia porcellus, UniProt Q60492).
T1 construct: from tissue; host or cells: guinea pig brain membranes
Nature of the series: σ1 receptor binding assay, [3H]-(+)-pentazocine, guinea pig brain membranes. How it is done: (§1) The σ1 and σ2 receptor binding studies were performed according to the literature.[46],[47] Briefly, for the σ1 receptor binding assay, guinea pig brain membranes (400 μL, 500 μg protein) were incubated for 150 min at 37 °C with 3 nM of the radiolabeled ligand [^3H]-(+)-pentazocine (45 Ci/mmol) and increasing concentrations of tested compounds in 50 mM Tris-HCl (pH 7.4) to a total volume of 1 mL. […] Moreover, σ2 receptor binding assays were made according to the following protocol: the guinea pig brain membranes (300 μL, 360 μg protein) were incubated for 120 min at room temperature with 3 nM [^3H]-DTG (31 Ci/mmol) in the presence of 0.4 mM […] (+)-SKF10,047 to block the σ1 sites. The incubation was performed in 50 mM Tris-HCl (pH 8.0) to a total volume of 0.5 mL with increasing concentrations of each test compound. Nonspecific binding was evaluated in the presence of 5 μM DTG.
(§2) Each sample was filtered through Whatman GF/B glass fiber filters, which were presoaked for 1 h in a 0.5% poly(ethylenimine) solution, using a Millipore filter apparatus. Filters were washed twice with 4 mL of ice-cold buffer. Radioactivity was counted in 4 mL of “Ultima Gold MV” in a 1414 WinSpectral PerkinElmer Wallac or Beckman LS6500 scintillation counter. Inhibition constants (Ki values) were calculated using the EBDA/LIGAND program purchased from Elsevier/Biosoft.

The next series deals with T2, σ2 receptor (Cavia porcellus, UniProt H0V073).
T2 construct: the guinea pig brain membranes (300 μL, 360 μg protein) were incubated for 120 min at room temperature with 3 nM [^3H]-DTG; from tissue; host or cells: guinea pig brain membranes
T2 sequence (H0V073 1-176): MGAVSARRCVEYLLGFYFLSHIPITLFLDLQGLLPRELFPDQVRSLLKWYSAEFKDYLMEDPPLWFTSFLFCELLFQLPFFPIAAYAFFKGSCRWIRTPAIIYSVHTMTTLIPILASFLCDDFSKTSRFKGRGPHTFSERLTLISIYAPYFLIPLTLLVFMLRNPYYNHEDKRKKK
Nature of the series: σ2 receptor binding assay, [3H]-DTG, guinea pig brain membranes. The procedure:
as §1, §2

Where [5] appears, read: 24 h, read-out: IC50, MTT viability test on HREC.
Where [6] appears, read: 24 h, read-out: pIC50 ± SE, MTT viability test on HREC (converted).
The mark [7] stands for this setting: 48 h, read-out: IC50, MTT viability test on HREC.
[8] abbreviates: 48 h, read-out: pIC50 ± SE, MTT viability test on HREC (converted).
Setting [9] is: 72 h, read-out: IC50, MTT viability test on HREC.
Setting [10] is: 72 h, read-out: pIC50 ± SE, MTT viability test on HREC (converted).

T1 sequence (Q60492 whole entry): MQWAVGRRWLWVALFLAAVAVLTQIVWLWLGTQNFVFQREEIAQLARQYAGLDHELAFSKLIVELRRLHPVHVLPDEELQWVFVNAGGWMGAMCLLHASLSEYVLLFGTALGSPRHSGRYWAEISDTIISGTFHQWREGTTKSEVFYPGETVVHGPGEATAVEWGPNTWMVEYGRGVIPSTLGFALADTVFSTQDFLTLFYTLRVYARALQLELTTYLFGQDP

In the case of `CCCC(CCC)C(=O)OC(CCCN1CCC(O)(c2ccc(Cl)cc2)CC1)c1ccc(F)cc1` (racemic) [(±)-1], in series [1], the “effect of coincubation with PTZ on the compound's anti-VEGF-A activity on HREC proliferation” value (“effect of coincubation with PTZ” below) was “partially counteracted”, the “effect on VEGF-A-mediated HREC proliferation” value is “completely prevented” and the “effect on HREC proliferation under basal conditions” value (“effect on HREC proliferation” for short) is “did not induce significant changes”. In series [2], the “Kobs, enzymatic stability” value was 0.011 ± 0.006 h^–1 and the half-life at 3.8 µM is 60.5 ± 0.6 h. Moreover, the “pIC50 ± SE, MTT viability test on HREC” value in the series with HREC [3] (24 h) is 4.98 ± 0.02. In addition, the “pIC50 ± SE, MTT viability test on HREC” value in the series on HREC [3] (48 h) is recorded as 4.95 ± 0.03. For the same compound, the “pIC50 ± SE, MTT viability test on HREC” value with HREC [3] (72 h) is 4.99 ± 0.04.

In the case of `CCCC(CCC)C(=O)O[C@H](CCCN1CCC(O)(c2ccc(Cl)cc2)CC1)c1ccc(F)cc1` [(+)-1], in series [1], the “effect of coincubation with AC927 on the compound's anti-VEGF-A activity on HREC proliferation” value is on record as “did not alter”. The “effect of coincubation with PTZ” value in series [1] is “did not alter”. The “effect on VEGF-A-mediated HREC proliferation” value in series [1] is listed as “completely prevented”. In addition, the “effect on HREC proliferation” value in series [1] was “did not induce significant changes”. The IC50 with HREC [4] (setting [5]) is 9.8 µM; in the series with HREC [4] (setting [6]) it was 9.77 µM; in the series with HREC [4] (setting [7]), 6.4 µM; with HREC [4] (setting [8]) it was 6.46 µM; with HREC [4] (setting [9]), 4.4 µM; in the series with HREC [4] (setting [10]), 4.47 µM. The Ki came out at 0.064 ± 0.0082 µM at σ1 receptor and 0.074 ± 0.0089 µM on σ2 receptor. Moreover, the “Kobs, enzymatic stability” value in series [2] was found to be 0.012 ± 0.001 h^–1. Further, in series [2], the half-life at 3.8 µM is 58.2 ± 1.2 h.

On to `CCCC(CCC)C(=O)O[C@@H](CCCN1CCC(O)(c2ccc(Cl)cc2)CC1)c1ccc(F)cc1` [(−)-1], for which, in series [1], the “effect of coincubation with AC927 on the compound's anti-VEGF-A activity on HREC proliferation” value is recorded as “did not alter”. Further, in series [1], the “effect of coincubation with PTZ” value is listed as “did not alter”. In addition, in series [1], the “effect on VEGF-A-mediated HREC proliferation” value is “completely prevented”. Also, the “effect on HREC proliferation” value in series [1] is “did not induce significant changes”. Also, the IC50 was 10.1 µM in the series on HREC [4] (setting [5]); 10.7 µM in the series on HREC [4] (setting [6]); 9 µM in the series with HREC [4] (setting [7]); 9.12 µM in the series on HREC [4] (setting [8]); 6.8 µM in the series with HREC [4] (setting [9]); 6.92 µM in the series with HREC [4] (setting [10]). Moreover, the Ki at σ1 receptor came out at 0.016 ± 0.0017 µM; at σ2 receptor, 0.056 ± 0.0064 µM. In series [2], the “Kobs, enzymatic stability” value is recorded as 0.01 ± 0.002 h^–1. Further, the half-life at 3.8 µM in series [2] is 70.3 ± 1.5 h.

Source of the values: paper PMC8474110 (Journal of Medicinal Chemistry, 2021).
